According to patent US20260130395A1, “Water Dispersible Botanical Compositions” (Aquila Black Limited, priority 2021, published 2026):

Experiment: Stability of cannabinoid compounds and Vitamin E components in Beverage 2 (AB Red) by LCMSMS
Assay type: physicochemical

## CCCCCc1cc(O)c2c(c1)OC(C)(C)c1ccc(C)cc1-2 [CBN, cannabinol]
Stored at 8° C., 0 days
  Stability of Plant-Derived Cannabinoid Compounds in AB Red: 2.81 µg/mL
Stored at 8° C., 1 days
  Stability of Plant-Derived Cannabinoid Compounds in AB Red: 2.82 µg/mL
Stored at 8° C., 2 days
  Stability of Plant-Derived Cannabinoid Compounds in AB Red: 2.74 µg/mL
Stored at 8° C., 3 days
  Stability of Plant-Derived Cannabinoid Compounds in AB Red: 2.83 µg/mL
Stored at 8° C., 5 days
  Stability of Plant-Derived Cannabinoid Compounds in AB Red: 2.78 µg/mL
Stored at 8° C., 8 days
  Stability of Plant-Derived Cannabinoid Compounds in AB Red: 2.80 µg/mL
Stored at 8° C., 9 days
  Stability of Plant-Derived Cannabinoid Compounds in AB Red: 2.74 µg/mL
Stored at 8° C., 10 days
  Stability of Plant-Derived Cannabinoid Compounds in AB Red: 2.79 µg/mL
Stored at 8° C., 11 days
  Stability of Plant-Derived Cannabinoid Compounds in AB Red: 2.73 µg/mL
Stored at 8° C., 12 days
  Stability of Plant-Derived Cannabinoid Compounds in AB Red: 2.76 µg/mL
Stored at 8° C., 15 days
  Stability of Plant-Derived Cannabinoid Compounds in AB Red: 2.77 µg/mL
Stored at 8° C., 16 days
  Stability of Plant-Derived Cannabinoid Compounds in AB Red: 2.83 µg/mL
Stored at 8° C., 17 days
  Stability of Plant-Derived Cannabinoid Compounds in AB Red: 2.80 µg/mL
Stored at 8° C., 18 days
  Stability of Plant-Derived Cannabinoid Compounds in AB Red: 2.78 µg/mL
Stored at 8° C., 19 days
  Stability of Plant-Derived Cannabinoid Compounds in AB Red: 2.78 µg/mL
Stored at 8° C., 22 days
  Stability of Plant-Derived Cannabinoid Compounds in AB Red: 2.73 µg/mL
Stored at 8° C., 23 days
  Stability of Plant-Derived Cannabinoid Compounds in AB Red: 2.79 µg/mL
Stored at 8° C., 24 days
  Stability of Plant-Derived Cannabinoid Compounds in AB Red: 2.76 µg/mL
Stored at 8° C., 25 days
  Stability of Plant-Derived Cannabinoid Compounds in AB Red: 2.83 µg/mL
Stored at 8° C., 26 days
  Stability of Plant-Derived Cannabinoid Compounds in AB Red: 2.79 µg/mL
Stored at 8° C., 29 days
  Stability of Plant-Derived Cannabinoid Compounds in AB Red: 2.77 µg/mL
Stored at 8° C., 30 days
  Stability of Plant-Derived Cannabinoid Compounds in AB Red: 2.77 µg/mL
Stored at 8° C., 60 days
  Stability of Plant-Derived Cannabinoid Compounds in AB Red: 2.73 µg/mL
Stored at 8° C., 90 days
  Stability of Plant-Derived Cannabinoid Compounds in AB Red: 2.80 µg/mL
Stored at 8° C., 120 days
  Stability of Plant-Derived Cannabinoid Compounds in AB Red: 2.69 µg/mL
Stored at 8° C., 150 days
  Stability of Plant-Derived Cannabinoid Compounds in AB Red: 2.69 µg/mL
Stored at 8° C., 180 days
  Stability of Plant-Derived Cannabinoid Compounds in AB Red: 2.74 µg/mL
Stored at 8° C., 210 days
  Stability of Plant-Derived Cannabinoid Compounds in AB Red: 2.69 µg/mL
Stored at 8° C., 240 days
  Stability of Plant-Derived Cannabinoid Compounds in AB Red: 2.74 µg/mL
Stored at 8° C., 270 days
  Stability of Plant-Derived Cannabinoid Compounds in AB Red: 2.76 µg/mL
Stored at 8° C., 300 days
  Stability of Plant-Derived Cannabinoid Compounds in AB Red: 2.75 µg/mL
Stored at 8° C., 330 days
  Stability of Plant-Derived Cannabinoid Compounds in AB Red: 2.71 µg/mL
Stored at 8° C., 360 days
  Stability of Plant-Derived Cannabinoid Compounds in AB Red: 2.69 µg/mL
Stored at 8° C., 390 days
  Stability of Plant-Derived Cannabinoid Compounds in AB Red: 2.72 µg/mL
Stored at 8° C., 420 days
  Stability of Plant-Derived Cannabinoid Compounds in AB Red: 2.69 µg/mL
Stored at 8° C., 450 days
  Stability of Plant-Derived Cannabinoid Compounds in AB Red: 2.71 µg/mL
Stored at 8° C., 480 days
  Stability of Plant-Derived Cannabinoid Compounds in AB Red: 2.66 µg/mL
Stored at 8° C., 510 days
  Stability of Plant-Derived Cannabinoid Compounds in AB Red: 2.62 µg/mL
Stored at 8° C., 540 days
  Stability of Plant-Derived Cannabinoid Compounds in AB Red: 2.60 µg/mL
Stored at 8° C., 570 days
  Stability of Plant-Derived Cannabinoid Compounds in AB Red: 2.58 µg/mL
Stored at 21-25° C., 0 days
  Stability of Plant-Derived Cannabinoid Compounds in AB Red: 2.81 µg/mL
Stored at 21-25° C., 1 days
  Stability of Plant-Derived Cannabinoid Compounds in AB Red: 2.73 µg/mL
Stored at 21-25° C., 2 days
  Stability of Plant-Derived Cannabinoid Compounds in AB Red: 2.83 µg/mL
Stored at 21-25° C., 3 days
  Stability of Plant-Derived Cannabinoid Compounds in AB Red: 2.78 µg/mL
Stored at 21-25° C., 5 days
  Stability of Plant-Derived Cannabinoid Compounds in AB Red: 2.71 µg/mL
Stored at 21-25° C., 8 days
  Stability of Plant-Derived Cannabinoid Compounds in AB Red: 2.74 µg/mL
Stored at 21-25° C., 9 days
  Stability of Plant-Derived Cannabinoid Compounds in AB Red: 2.72 µg/mL
Stored at 21-25° C., 10 days
  Stability of Plant-Derived Cannabinoid Compounds in AB Red: 2.73 µg/mL
Stored at 21-25° C., 11 days
  Stability of Plant-Derived Cannabinoid Compounds in AB Red: 2.83 µg/mL
Stored at 21-25° C., 12 days
  Stability of Plant-Derived Cannabinoid Compounds in AB Red: 2.70 µg/mL
Stored at 21-25° C., 15 days
  Stability of Plant-Derived Cannabinoid Compounds in AB Red: 2.77 µg/mL
Stored at 21-25° C., 16 days
  Stability of Plant-Derived Cannabinoid Compounds in AB Red: 2.81 µg/mL
Stored at 21-25° C., 17 days
  Stability of Plant-Derived Cannabinoid Compounds in AB Red: 2.74 µg/mL
Stored at 21-25° C., 18 days
  Stability of Plant-Derived Cannabinoid Compounds in AB Red: 2.80 µg/mL
Stored at 21-25° C., 19 days
  Stability of Plant-Derived Cannabinoid Compounds in AB Red: 2.70 µg/mL
Stored at 21-25° C., 22 days
  Stability of Plant-Derived Cannabinoid Compounds in AB Red: 2.70 µg/mL
Stored at 21-25° C., 23 days
  Stability of Plant-Derived Cannabinoid Compounds in AB Red: 2.82 µg/mL
Stored at 21-25° C., 24 days
  Stability of Plant-Derived Cannabinoid Compounds in AB Red: 2.78 µg/mL
Stored at 21-25° C., 25 days
  Stability of Plant-Derived Cannabinoid Compounds in AB Red: 2.84 µg/mL
Stored at 21-25° C., 26 days
  Stability of Plant-Derived Cannabinoid Compounds in AB Red: 2.70 µg/mL
Stored at 21-25° C., 29 days
  Stability of Plant-Derived Cannabinoid Compounds in AB Red: 2.78 µg/mL
Stored at 21-25° C., 30 days
  Stability of Plant-Derived Cannabinoid Compounds in AB Red: 2.77 µg/mL
Stored at 21-25° C., 60 days
  Stability of Plant-Derived Cannabinoid Compounds in AB Red: 2.78 µg/mL
Stored at 21-25° C., 90 days
  Stability of Plant-Derived Cannabinoid Compounds in AB Red: 2.75 µg/mL
Stored at 21-25° C., 120 days
  Stability of Plant-Derived Cannabinoid Compounds in AB Red: 2.77 µg/mL
Stored at 21-25° C., 150 days
  Stability of Plant-Derived Cannabinoid Compounds in AB Red: 2.75 µg/mL
Stored at 21-25° C., 180 days
  Stability of Plant-Derived Cannabinoid Compounds in AB Red: 2.70 µg/mL
Stored at 21-25° C., 210 days
  Stability of Plant-Derived Cannabinoid Compounds in AB Red: 2.70 µg/mL
Stored at 21-25° C., 240 days
  Stability of Plant-Derived Cannabinoid Compounds in AB Red: 2.73 µg/mL
Stored at 21-25° C., 270 days
  Stability of Plant-Derived Cannabinoid Compounds in AB Red: 2.73 µg/mL
Stored at 21-25° C., 300 days
  Stability of Plant-Derived Cannabinoid Compounds in AB Red: 2.70 µg/mL
Stored at 21-25° C., 330 days
  Stability of Plant-Derived Cannabinoid Compounds in AB Red: 2.75 µg/mL
Stored at 21-25° C., 360 days
  Stability of Plant-Derived Cannabinoid Compounds in AB Red: 2.72 µg/mL
Stored at 21-25° C., 390 days
  Stability of Plant-Derived Cannabinoid Compounds in AB Red: 2.65 µg/mL
Stored at 21-25° C., 420 days
  Stability of Plant-Derived Cannabinoid Compounds in AB Red: 2.64 µg/mL
Stored at 21-25° C., 450 days
  Stability of Plant-Derived Cannabinoid Compounds in AB Red: 2.68 µg/mL
Stored at 21-25° C., 480 days
  Stability of Plant-Derived Cannabinoid Compounds in AB Red: 2.58 µg/mL
Stored at 21-25° C., 510 days
  Stability of Plant-Derived Cannabinoid Compounds in AB Red: 2.66 µg/mL
Stored at 21-25° C., 540 days
  Stability of Plant-Derived Cannabinoid Compounds in AB Red: 2.65 µg/mL
Stored at 21-25° C., 570 days
  Stability of Plant-Derived Cannabinoid Compounds in AB Red: 2.58 µg/mL
